According to patent publication US10934274B2, “Quinoline derivatives as TAM RTK inhibitors” (Qurient Co., Ltd., priority 2015, dated 2021):

Experiments:
Mer = target: T1, Mer (Homo sapiens, UniProt Q12866); assay: LanthaScreen Eu kinase binding assay, Mer; settings: Tracer 236
T1 construct: purchased Life Technologies
T1 sequence (Q12866 21-999): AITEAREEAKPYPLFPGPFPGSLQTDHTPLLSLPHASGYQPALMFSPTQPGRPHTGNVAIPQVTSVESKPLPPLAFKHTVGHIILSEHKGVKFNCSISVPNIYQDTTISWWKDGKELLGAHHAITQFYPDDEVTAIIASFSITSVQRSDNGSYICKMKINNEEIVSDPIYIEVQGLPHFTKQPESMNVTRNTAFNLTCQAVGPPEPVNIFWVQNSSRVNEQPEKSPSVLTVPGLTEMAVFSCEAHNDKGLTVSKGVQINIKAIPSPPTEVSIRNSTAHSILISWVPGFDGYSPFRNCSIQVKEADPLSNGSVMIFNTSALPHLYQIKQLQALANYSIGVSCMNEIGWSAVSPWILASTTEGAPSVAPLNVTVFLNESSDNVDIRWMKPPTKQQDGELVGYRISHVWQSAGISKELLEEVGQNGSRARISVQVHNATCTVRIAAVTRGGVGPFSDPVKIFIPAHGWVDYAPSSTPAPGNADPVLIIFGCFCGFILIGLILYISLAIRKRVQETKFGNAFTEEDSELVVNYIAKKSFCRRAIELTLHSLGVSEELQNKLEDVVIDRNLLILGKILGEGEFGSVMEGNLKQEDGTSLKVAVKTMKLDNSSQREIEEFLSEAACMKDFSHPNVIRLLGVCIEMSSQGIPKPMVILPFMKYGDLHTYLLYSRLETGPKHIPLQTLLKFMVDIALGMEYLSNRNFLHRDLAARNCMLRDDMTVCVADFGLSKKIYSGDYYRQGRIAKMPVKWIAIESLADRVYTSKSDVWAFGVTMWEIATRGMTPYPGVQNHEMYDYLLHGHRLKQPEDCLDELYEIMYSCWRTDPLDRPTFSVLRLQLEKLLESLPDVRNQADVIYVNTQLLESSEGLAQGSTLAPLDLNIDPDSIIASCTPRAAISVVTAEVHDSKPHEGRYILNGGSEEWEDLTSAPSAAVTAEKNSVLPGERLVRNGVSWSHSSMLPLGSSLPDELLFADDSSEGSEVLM
Method: (§1) LanthaScreen® Eu Kinase Binding assays were conducted at Life Technologies using the manufacturer's specifications for each kinase indicated.
(§2) Briefly, the principle behind this assay is based upon the binding and displacement of an Alexa Fluor 647-labeled tracer to the kinase of interest. Binding of the tracer to the kinase is detected using an EU-labeled anti-tag antibody. Simultaneous binding of both the tracer and antibody to the kinase gives rise to a FRET-signal. Binding of an inhibitor to the kinase competes for binding with the tracer, resulting in a loss of FRET-signal.
(§3) Binding Assay Protocol for AXL, Mer, Tyro3 and Met
(§4) A given compound was diluted in DMSO to make a stock compound solution. The stock compound solution was serially diluted over eight steps in DMSO. Each diluted compound solution in DMSO was diluted in kinase buffer. Afterwards four kinds of working solution were prepared. First, Tracer-Working solution consists of Tracer 236 and Kinase Buffer. Second, Axl, Mer, Tyro3 or Met/anti-GST-AB-Working solution contained one of the kinases Axl, Mer, Tyro3, Met or anti-GST-AB (=anti glutathione-S-transferase antibody) in Kinase Buffer. Third, anti-GST-AB-Working solution was made with anti-GST-AB and Kinase Buffer. Last, in the DMSO-Working solution DMSO was added to Kinase Buffer to a final concentration to 3%. Each of the four kinds of working solutions were separately added to the assay plate and then incubated for 1 h at room temperature. After incubation, the assay plate was measured with respect to the FRET-Signal with the EnVision (Perkin Elmer) using the program LanthaHTRF-Assay. Data evaluation was done in the Quattro Workflow software.
(§5) Table 1 summarises the results obtained for AXL, Mer and Tyro3-kinases binding assays; table 2 summarises the results obtained for the Met kinase binding assay.

TYRO3 = target: T2, TYRO3 (Homo sapiens, UniProt Q06418); assay: LanthaScreen Eu kinase binding assay, TYRO3; settings: Tracer 236
T2 construct: purchased Life Technologies
T2 sequence (Q06418 41-890): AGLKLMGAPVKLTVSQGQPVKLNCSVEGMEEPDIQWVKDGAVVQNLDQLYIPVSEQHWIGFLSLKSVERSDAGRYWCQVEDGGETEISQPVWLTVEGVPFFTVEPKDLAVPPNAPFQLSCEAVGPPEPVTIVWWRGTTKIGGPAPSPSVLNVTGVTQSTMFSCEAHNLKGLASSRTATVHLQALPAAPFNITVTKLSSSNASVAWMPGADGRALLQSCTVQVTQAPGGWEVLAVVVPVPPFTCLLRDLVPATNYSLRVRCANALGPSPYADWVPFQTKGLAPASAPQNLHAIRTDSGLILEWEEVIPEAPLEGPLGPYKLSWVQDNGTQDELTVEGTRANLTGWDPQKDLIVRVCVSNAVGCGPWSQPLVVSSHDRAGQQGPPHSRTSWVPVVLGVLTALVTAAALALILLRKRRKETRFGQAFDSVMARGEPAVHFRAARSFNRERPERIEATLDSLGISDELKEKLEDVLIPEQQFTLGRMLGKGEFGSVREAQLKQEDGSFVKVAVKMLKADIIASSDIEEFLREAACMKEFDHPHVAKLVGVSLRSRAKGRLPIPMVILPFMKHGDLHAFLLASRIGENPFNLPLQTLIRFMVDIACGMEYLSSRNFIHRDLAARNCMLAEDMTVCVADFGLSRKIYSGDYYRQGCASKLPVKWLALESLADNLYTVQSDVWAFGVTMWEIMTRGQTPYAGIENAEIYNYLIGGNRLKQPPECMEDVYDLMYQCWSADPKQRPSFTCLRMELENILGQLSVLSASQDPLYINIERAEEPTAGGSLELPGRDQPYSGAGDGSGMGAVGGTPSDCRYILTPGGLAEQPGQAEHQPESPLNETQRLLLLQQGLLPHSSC
Method: as §1, §2, §3, §4, §5

Met = target: T3, Met (Homo sapiens, UniProt P08581); assay: LanthaScreen Eu kinase binding assay, Met; settings: Tracer 236, read-out: cMet kinase binding activity (Kd)
T3 construct: purchased Life Technologies
T3 sequence (P08581 25-1390): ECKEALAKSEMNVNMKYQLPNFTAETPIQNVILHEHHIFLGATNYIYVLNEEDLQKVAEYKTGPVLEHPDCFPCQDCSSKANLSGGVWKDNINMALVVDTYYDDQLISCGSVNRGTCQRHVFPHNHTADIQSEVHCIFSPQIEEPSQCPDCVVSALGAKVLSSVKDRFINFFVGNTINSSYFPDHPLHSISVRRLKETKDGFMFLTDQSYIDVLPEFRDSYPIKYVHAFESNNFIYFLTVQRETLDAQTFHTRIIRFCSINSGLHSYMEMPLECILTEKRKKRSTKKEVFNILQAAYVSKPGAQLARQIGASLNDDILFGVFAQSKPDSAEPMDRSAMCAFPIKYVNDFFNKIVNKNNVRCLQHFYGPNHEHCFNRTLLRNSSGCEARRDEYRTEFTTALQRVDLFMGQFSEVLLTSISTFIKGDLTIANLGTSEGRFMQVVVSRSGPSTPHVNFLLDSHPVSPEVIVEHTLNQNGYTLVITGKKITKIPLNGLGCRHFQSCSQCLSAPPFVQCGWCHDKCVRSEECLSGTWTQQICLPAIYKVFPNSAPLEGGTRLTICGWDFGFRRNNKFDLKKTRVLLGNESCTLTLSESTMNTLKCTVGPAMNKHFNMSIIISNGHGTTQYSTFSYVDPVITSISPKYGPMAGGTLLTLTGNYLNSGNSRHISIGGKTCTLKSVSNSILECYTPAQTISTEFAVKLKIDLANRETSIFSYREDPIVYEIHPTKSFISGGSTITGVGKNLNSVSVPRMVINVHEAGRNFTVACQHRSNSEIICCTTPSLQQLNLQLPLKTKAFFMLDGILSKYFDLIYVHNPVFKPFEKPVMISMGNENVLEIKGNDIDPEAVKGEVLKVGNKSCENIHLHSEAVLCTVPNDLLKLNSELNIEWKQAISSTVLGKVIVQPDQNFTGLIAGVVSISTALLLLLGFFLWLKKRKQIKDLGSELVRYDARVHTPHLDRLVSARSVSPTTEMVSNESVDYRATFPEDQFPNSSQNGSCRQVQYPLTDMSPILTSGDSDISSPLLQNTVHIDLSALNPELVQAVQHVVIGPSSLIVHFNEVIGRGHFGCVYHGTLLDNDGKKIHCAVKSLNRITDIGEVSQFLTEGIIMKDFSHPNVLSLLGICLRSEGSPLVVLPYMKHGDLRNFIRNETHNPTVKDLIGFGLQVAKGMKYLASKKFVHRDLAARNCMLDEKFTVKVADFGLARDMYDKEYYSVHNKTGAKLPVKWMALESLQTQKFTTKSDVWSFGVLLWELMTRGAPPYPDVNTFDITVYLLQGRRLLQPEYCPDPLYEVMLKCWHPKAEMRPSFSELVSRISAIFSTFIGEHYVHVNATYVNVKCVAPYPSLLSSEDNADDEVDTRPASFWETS
Method: as §1, §2, §3, §4, §5

Axl = target: T4, Axl (Homo sapiens, UniProt P30530); assay: LanthaScreen Eu kinase binding assay, Axl; settings: Tracer 236
T4 construct: purchased Life Technologies
T4 sequence (P30530 26-894): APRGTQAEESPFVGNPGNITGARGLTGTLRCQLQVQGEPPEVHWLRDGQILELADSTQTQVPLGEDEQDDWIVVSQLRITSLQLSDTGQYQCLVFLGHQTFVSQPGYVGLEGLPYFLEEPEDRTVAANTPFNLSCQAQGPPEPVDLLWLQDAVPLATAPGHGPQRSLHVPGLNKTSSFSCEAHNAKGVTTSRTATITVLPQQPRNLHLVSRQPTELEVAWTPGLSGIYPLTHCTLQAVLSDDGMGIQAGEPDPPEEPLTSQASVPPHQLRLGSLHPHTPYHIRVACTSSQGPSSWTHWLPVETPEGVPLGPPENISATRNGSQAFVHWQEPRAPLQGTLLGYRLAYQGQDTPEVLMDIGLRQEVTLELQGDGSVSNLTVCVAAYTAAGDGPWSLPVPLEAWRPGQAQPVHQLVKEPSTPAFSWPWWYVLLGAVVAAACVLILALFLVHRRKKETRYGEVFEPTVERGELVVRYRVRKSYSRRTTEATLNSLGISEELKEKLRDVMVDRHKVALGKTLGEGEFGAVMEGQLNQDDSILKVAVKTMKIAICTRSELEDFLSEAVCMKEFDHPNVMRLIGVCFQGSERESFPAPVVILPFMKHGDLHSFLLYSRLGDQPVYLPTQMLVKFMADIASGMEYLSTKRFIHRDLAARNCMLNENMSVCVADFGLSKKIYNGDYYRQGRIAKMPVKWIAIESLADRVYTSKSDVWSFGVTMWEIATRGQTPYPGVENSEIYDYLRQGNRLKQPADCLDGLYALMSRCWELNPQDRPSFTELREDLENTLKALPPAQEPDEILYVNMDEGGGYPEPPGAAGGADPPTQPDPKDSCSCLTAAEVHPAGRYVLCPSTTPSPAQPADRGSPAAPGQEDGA
Method: as §1, §2, §3, §4, §5

Row | Structure (SMILES) | Kd (Mer) [nM] | Kd (TYRO3) [nM] | Kd (Met) [nM] | Kd (Axl) [nM]
1 | CCOc1cn(-c2cncnc2)nc1C(=O)Nc1ccc(Oc2ccnc3cc(OC)c(OC)cc23)cn1 [Compound 2] | < 100 | < 100 | < 100 | < 100
2 | CCOc1cnn(-c2cncn2C)c1C(=O)Nc1ccc(Oc2ccnc3cc(OC)c(OC)cc23)cn1 [Compound 15] | 100 to 1000 | ≥ 1000 | 100 to 1000 | ≥ 1000
3 | CCOc1c[nH]nc1C(=O)Nc1ccc(Oc2ccnc3cc(OC)c(OC)cc23)cn1 [Compound 22] | < 100 | < 100 | 100 to 1000 | 100 to 1000
4 | CCOc1cn(-c2ccc(NC(C)C)cc2Cl)nc1C(=O)Nc1ccc(Oc2ccnc3cc(OC)c(OC)cc23)cn1 [Compound 24] | < 100 | ≥ 1000 | 100 to 1000 | 100 to 1000
5 | CCOc1cnn(-c2ccoc2)c1C(=O)Nc1ccc(Oc2ccnc3cc(OC)c(OC)cc23)cn1 [Compound 25] | ≥ 1000 | ≥ 1000 | ≥ 1000 | 100 to 1000
6 | CCOc1cnn(CC)c1C(=O)Nc1ccc(Oc2ccnc3cc(OC)c(OC)cc23)cn1 [Compound 28] | 100 to 1000 | ≥ 1000 | 100 to 1000 | 100 to 1000
7 | CCOc1cn(CC(N)=O)nc1C(=O)Nc1ccc(Oc2ccnc3cc(OC)c(OC)cc23)cn1 [Compound 35] | < 100 | ≥ 1000 | ≥ 1000 | 100 to 1000
8 | CCOc1cnn(CCn2cccn2)c1C(=O)Nc1ccc(Oc2ccnc3cc(OC)c(OC)cc23)cn1 [Compound 42] | < 100 | ≥ 1000 | 100 to 1000 | 100 to 1000
9 | CCOc1nn(-c2cccnc2)cc1C(=O)Nc1ccc(Oc2ccnc3cc(OC)c(OC)cc23)cn1 [Compound 46] | ≥ 1000 | ≥ 1000 | ≥ 1000 | ≥ 1000
10 | CCOc1cn(-c2cccnc2)nc1C(=O)Nc1ncc(Oc2ccnc3cc(OC)c(OC)cc23)cn1 [Compound 47] | 100 to 1000 | ≥ 1000 | ≥ 1000 | 100 to 1000

More lines, now with the values ahead:

Row | Kd (Mer) [nM] | Kd (TYRO3) [nM] | Kd (Met) [nM] | Kd (Axl) [nM] | Structure (SMILES)
11 | < 100 | 100 to 1000 | 100 to 1000 | 100 to 1000 | CCOc1cn(CCN(C)C)nc1C(=O)Nc1ccc(Oc2ccnc3cc(OC)c(OC)cc23)cn1 [Compound 49]
12 | ≥ 1000 | ≥ 1000 | ≥ 1000 | 100 to 1000 | CCOc1cn(-c2ccc(C#N)nc2)nc1C(=O)Nc1ccc(Oc2ccnc3cc(OC)c(OC)cc23)cn1 [Compound 50]
13 | 100 to 1000 | ≥ 1000 | 100 to 1000 | 100 to 1000 | CCOc1cnn(CC2CCO2)c1C(=O)Nc1ccc(Oc2ccnc3cc(OC)c(OC)cc23)cn1 (centres unmarked) [Compound 51]
14 | ≥ 1000 | ≥ 1000 | ≥ 1000 | ≥ 1000 | CCOc1cnn(CCN(C)C)c1C(=O)Nc1ccc(Oc2ccnc3cc(OC)c(OC)cc23)cn1 [Compound 52]
15 | ≥ 1000 | ≥ 1000 | ≥ 1000 | ≥ 1000 | CCOc1cnn(-c2ccc(C#N)nc2)c1C(=O)Nc1ccc(Oc2ccnc3cc(OC)c(OC)cc23)cn1 [Compound 53]
16 | ≥ 1000 | ≥ 1000 | ≥ 1000 | ≥ 1000 | CCOc1cn(-c2cnc(C#N)cn2)nc1C(=O)Nc1ccc(Oc2ccnc3cc(OC)c(OC)cc23)cn1 [Compound 54]
17 | ≥ 1000 | ≥ 1000 | ≥ 1000 | ≥ 1000 | CCOc1cn(-c2cccnc2)nc1C(=O)Nc1cnc(Oc2ccnc3cc(OC)c(OC)cc23)nc1 [Compound 60]
18 | < 100 | ≥ 1000 | ≥ 1000 | 100 to 1000 | CCOc1cn(CC(=O)O)nc1C(=O)Nc1ccc(Oc2ccnc3cc(OC)c(OC)cc23)cn1 [Compound 62]
19 | 100 to 1000 | 100 to 1000 | 100 to 1000 | 100 to 1000 | CCOc1cn(CCC(=O)O)nc1C(=O)Nc1ccc(Oc2ccnc3cc(OC)c(OC)cc23)cn1 [Compound 63]
20 | < 100 | 100 to 1000 | 100 to 1000 | 100 to 1000 | CCOc1cn(CCC(=O)NC)nc1C(=O)Nc1ccc(Oc2ccnc3cc(OC)c(OC)cc23)cn1 [Compound 67]
21 | 100 to 1000 | ≥ 1000 | 100 to 1000 | ≥ 1000 | CCOc1cn(C2CCNC2)nc1C(=O)Nc1ccc(Oc2ccnc3cc(OC)c(OC)cc23)cn1 (centres unmarked) [Compound 69]
22 | < 100 | 100 to 1000 | 100 to 1000 | 100 to 1000 | CCOc1cn(CCO)nc1C(=O)Nc1ccc(Oc2ccnc3cc(OC)c(OC)cc23)cn1 [Compound 70]
23 | 100 to 1000 | ≥ 1000 | 100 to 1000 | ≥ 1000 | CCOc1cnn(C2CCNC2)c1C(=O)Nc1ccc(Oc2ccnc3cc(OC)c(OC)cc23)cn1 (centres unmarked) [Compound 71]
